This is an account of results in BindingDB's records for doi:10.1016/j.bmcl.2017.11.009 (De Montfort University, 2017).

The nature of data set [1]: Inhibition of recombinant human CYP1B1 expressed in HEK293 cells assessed as potentiation of cisplatin-induced cytotoxicity by measuring cisplatin EC50 by MTT assay (Rvb = 65.01 +/- 7.01 uM).
Data set [2] in a line: Inhibition of recombinant human CYP1A1 expressed in HEK293 cells assessed as reduction in benzo(a)pyrene-induced toxicity by measuring B[a]P EC50 at 2 times IC50 by MTT assay (Rvb = 0.8 +/- 0.14 uM).

In the case of `COc1cc(/C=C/C(=O)c2ccncc2)cc(OC)c1`, the EC50 in data set [1] turned out to be 10 µM. Take `CCOc1cc(/C=C/C(=O)c2ccncc2)cc(OC)c1OC`: the EC50 in data set [2] was found to be 14 µM.

For the molecule `CCOc1cc(/C=C/C(=O)c2ccncc2)cc(OCC)c1OCC`, the EC50 in data set [2] is 14 µM. As to `COc1cc(/C=C/C(=O)c2ccncc2)cc(OC)c1OC`, the EC50 in data set [2] was 14 µM.

As to `CCOc1cc(/C=C/C(=O)c2ccncc2)cc(OC)c1OCC`, the EC50 in data set [2] stood at 14 µM. For `COc1ccc(/C=C/C(=O)c2ccncc2)c(OC)c1OC`, the EC50 in data set [1] is 10 µM.

As for `COc1ccccc1/C=C/C(=O)c1ccncc1`, the EC50 in data set [1] was 10 µM. For the molecule `COc1cccc(/C=C/C(=O)c2ccncc2)c1`, the EC50 in data set [1] was 10 µM.
